Experimental data published in publication PMC4172587 (2014).

What was measured:
[1] = system: poly(dA-dT).poly(dA-dT) (DNA, polymer) AT; experiment: UV melting, 260 nm; settings: Na+ (citrate-phosphate 15 mM); 15 mM CP buffer pH 6.8; 20 µM polymer; harmalol at saturation (rmax); per base
[2] = system: poly(dA).poly(dT) (DNA, polymer) A/T; experiment: UV melting, 260 nm; settings: Na+ (citrate-phosphate 15 mM); 15 mM CP buffer pH 6.8; 20 µM polymer; harmalol at saturation (rmax); per base
[3] = system: poly(dG).poly(dC) (DNA, polymer) G/C; experiment: UV melting, 260 nm; settings: Na+ (citrate-phosphate 15 mM); 15 mM CP buffer pH 6.8; 20 µM polymer; harmalol at saturation (rmax); per base
[4] = system: poly(dG-dC).poly(dG-dC) (DNA, polymer) GC; experiment: competition dialysis; settings: Na+ (citrate-phosphate 15 mM); apparent; 15 mM CP buffer pH 6.8, 25 °C; 150 µM nucleotide phosphate, 1 µM harmalol; per base
[5] = system: poly(dA-dT).poly(dA-dT) (DNA, polymer) AT; experiment: competition dialysis; settings: Na+ (citrate-phosphate 15 mM); apparent; 15 mM CP buffer pH 6.8, 25 °C; 150 µM nucleotide phosphate, 1 µM harmalol; per base
[6] = system: poly(dA).poly(dT) (DNA, polymer) A/T; experiment: competition dialysis; settings: Na+ (citrate-phosphate 15 mM); apparent; 15 mM CP buffer pH 6.8, 25 °C; 150 µM nucleotide phosphate, 1 µM harmalol; per base
[7] = system: poly(dG).poly(dC) (DNA, polymer) G/C; experiment: competition dialysis; settings: Na+ (citrate-phosphate 15 mM); apparent; 15 mM CP buffer pH 6.8, 25 °C; 150 µM nucleotide phosphate, 1 µM harmalol; per base
[8] = system: poly(dG-dC).poly(dG-dC) (DNA, polymer) GC; experiment: ITC, polynucleotide titrated into harmalol; settings: 15 mM Na+; CP buffer pH 6.8, 25 °C; single-site fit; 20 µM harmalol; per base
[9] = system: poly(dA-dT).poly(dA-dT) (DNA, polymer) AT; experiment: ITC, polynucleotide titrated into harmalol; settings: 15 mM Na+; CP buffer pH 6.8, 25 °C; single-site fit; text b28 prints 0.40±0.02×10^5, Table 3 agrees with 0.44×10^6; per base
[10] = system: poly(dA).poly(dT) (DNA, polymer) A/T; experiment: ITC, polynucleotide titrated into harmalol; settings: 15 mM Na+; CP buffer pH 6.8, 25 °C; single-site fit; 20 µM harmalol; per base
[11] = system: poly(dG).poly(dC) (DNA, polymer) G/C; experiment: ITC, polynucleotide titrated into harmalol; settings: 15 mM Na+; CP buffer pH 6.8, 25 °C; single-site fit; 20 µM harmalol; per base
[12] = system: poly(dG-dC).poly(dG-dC) (DNA, polymer) GC; experiment: absorbance titration, Scatchard, McGhee-von Hippel; settings: Na+ (citrate-phosphate 15 mM); 15 mM CP buffer pH 6.8, 25 °C; non cooperative; DNA as nucleotide phosphate; per base
[13] = system: poly(dA-dT).poly(dA-dT) (DNA, polymer) AT; experiment: absorbance titration, Scatchard, McGhee-von Hippel; settings: Na+ (citrate-phosphate 15 mM); 15 mM CP buffer pH 6.8, 25 °C; non cooperative; DNA as nucleotide phosphate; per base
[14] = system: poly(dA).poly(dT) (DNA, polymer) A/T; experiment: absorbance titration, Scatchard, McGhee-von Hippel; settings: Na+ (citrate-phosphate 15 mM); 15 mM CP buffer pH 6.8, 25 °C; cooperative, intrinsic Ki 0.02±0.01 × 10^6, ω 14.0; DNA as nucleotide phosphate; per base
[15] = system: poly(dG).poly(dC) (DNA, polymer) G/C; experiment: absorbance titration, Scatchard, McGhee-von Hippel; settings: Na+ (citrate-phosphate 15 mM); 15 mM CP buffer pH 6.8, 25 °C; cooperative, intrinsic Ki 0.002±0.001 × 10^6, ω 84; DNA as nucleotide phosphate; per base
[16] = system: poly(dG-dC).poly(dG-dC) (DNA, polymer) GC; experiment: fluorescence titration, Scatchard, McGhee-von Hippel; settings: Na+ (citrate-phosphate 15 mM); 15 mM CP buffer pH 6.8, 25 °C; non cooperative; DNA as nucleotide phosphate; per base
[17] = system: poly(dA-dT).poly(dA-dT) (DNA, polymer) AT; experiment: as above; settings: Na+ (citrate-phosphate 15 mM); 15 mM CP buffer pH 6.8, 25 °C; non cooperative; DNA as nucleotide phosphate; per base
[18] = system: poly(dA).poly(dT) (DNA, polymer) A/T; experiment: as above; settings: Na+ (citrate-phosphate 15 mM); 15 mM CP buffer pH 6.8, 25 °C; cooperative, intrinsic constant, ω 20; DNA as nucleotide phosphate; per base
[19] = system: poly(dG).poly(dC) (DNA, polymer) G/C; experiment: as above; settings: Na+ (citrate-phosphate 15 mM); 15 mM CP buffer pH 6.8, 25 °C; cooperative, intrinsic constant, ω 75; DNA as nucleotide phosphate; per base

ΔTm [1]: 8 °C | ΔTm [2]: 6 °C | ΔTm [3]: 6 °C | Kapp [4]: 13.10±0.07 × 10^5 M^-1 | Kapp [5]: 4.56±0.04 × 10^5 M^-1 | Kapp [6]: 3.39±0.02 × 10^5 M^-1 | Kapp [7]: 2.19±0.01 × 10^5 M^-1 | Kb [8]: 3.86±0.07 × 10^6 M^-1 | Kb [9]: 0.44±0.02 × 10^6 M^-1 | Kb [10]: 0.30±0.02 × 10^6 M^-1 | Kb [11]: 0.22±0.03 × 10^6 M^-1 | Ki [12]: 4.20±0.05 × 10^6 M^-1 | Ki [13]: 0.43±0.03 × 10^6 M^-1 | Kiω [14]: 0.28±0.01 × 10^6 M^-1 | Kiω [15]: 0.18±0.01 × 10^6 M^-1 | Kf [16]: 4.60±0.07 × 10^6 M^-1 | Kf [17]: 0.45±0.04 × 10^6 M^-1 | Kf [18]: 0.015±0.001 × 10^6 M^-1 | Kf [19]: 0.002±0.001 × 10^6 M^-1
Structure (SMILES): CC1=NCCc2c1[nH]c1cc(O)ccc21
